Source: PubChem BioAssay (NCI)
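Each compound was tested at five concentrations against cells in 96-well plates for 48 hours. At the GI50, growth is halved. TGI marks complete inhibition of growth.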

Legend:
Test in all cases: inhibition of tumour cell growth, NCI panel, 48 h; in the data active = GI50 below about 0.43 µM; inactive = the rest
MALME-3M melanoma = system: MALME-3M melanoma
MOLT-4 leukemia = system: MOLT-4 leukemia
SF-539 CNS = system: SF-539 CNS
BT-549 breast = system: BT-549 breast
SF-268 CNS = system: SF-268 CNS
KM12 colon = system: KM12 colon
NCI/ADR-RES ovarian = system: NCI/ADR-RES ovarian
NCI-H460 lung = system: NCI-H460 lung
HS 578T breast = system: HS 578T breast
IGROV1 ovarian = system: IGROV1 ovarian
T-47D breast = system: T-47D breast
HCT-15 colon = system: HCT-15 colon
OVCAR-8 ovarian = system: OVCAR-8 ovarian
EKVX NSCLC = system: EKVX NSCLC
SK-MEL-28 melanoma = system: SK-MEL-28 melanoma
SK-MEL-2 melanoma = system: SK-MEL-2 melanoma
UACC-257 melanoma = system: UACC-257 melanoma
MDA-MB-231 breast = system: MDA-MB-231 breast
K-562 leukemia = system: K-562 leukemia
OVCAR-4 ovarian = system: OVCAR-4 ovarian
OVCAR-5 ovarian = system: OVCAR-5 ovarian
RXF 393 renal = system: RXF 393 renal
HT29 colon = system: HT29 colon
A498 renal = system: A498 renal
ACHN renal = system: ACHN renal
MCF7 breast = system: MCF7 breast
U251 CNS = system: U251 CNS
NCI-H522 lung = system: NCI-H522 lung
CCRF-CEM leukemia = system: CCRF-CEM leukemia
HOP-62 NSCLC = system: HOP-62 NSCLC
SK-OV-3 ovarian = system: SK-OV-3 ovarian
SNB-19 CNS = system: SNB-19 CNS
LOX IMVI melanoma = system: LOX IMVI melanoma
OVCAR-3 ovarian = system: OVCAR-3 ovarian
SK-MEL-5 melanoma = system: SK-MEL-5 melanoma
A549 NSCLC = system: A549 NSCLC
SNB-75 CNS = system: SNB-75 CNS
COLO 205 colon = system: COLO 205 colon
HL-60(TB) leukemia = system: HL-60(TB) leukemia
NCI-H23 lung = system: NCI-H23 lung
SN12C renal = system: SN12C renal
SR leukemia = system: SR leukemia
TK-10 renal = system: TK-10 renal
RPMI-8226 leukemia = system: RPMI-8226 leukemia
MDA-MB-435 = system: MDA-MB-435
UO-31 renal = system: UO-31 renal
UACC-62 melanoma = system: UACC-62 melanoma
DU-145 prostate = system: DU-145 prostate
HOP-92 NSCLC = system: HOP-92 NSCLC
HCC-2998 colon = system: HCC-2998 colon
CAKI-1 renal = system: CAKI-1 renal
786-0 renal = system: 786-0 renal
SF-295 CNS = system: SF-295 CNS
SW-620 colon = system: SW-620 colon
PC-3 prostate = system: PC-3 prostate
NCI-H226 lung = system: NCI-H226 lung

O=C(NN=C1CCCCC1)c1[nH]c2ccc(F)cc2c1-c1ccccc1
50.9 µM: TGI (HCT-15 colon)
80.4 µM: TGI (MCF7 breast)
26.6 µM: TGI (K-562 leukemia)
52.7 µM: TGI (HL-60(TB) leukemia)
inactive: GI50 (MALME-3M melanoma) > 100 µM | GI50 (MOLT-4 leukemia) 22.5 µM | GI50 (SF-539 CNS) 52 µM | GI50 (BT-549 breast) 57.4 µM | GI50 (SF-268 CNS) 18.9 µM | GI50 (KM12 colon) 44.7 µM | GI50 (NCI/ADR-RES ovarian) 23.7 µM | GI50 (NCI-H460 lung) 22 µM | GI50 (HS 578T breast) 48.3 µM | GI50 (IGROV1 ovarian) 65.9 µM | GI50 (T-47D breast) 46.8 µM | GI50 (HCT-15 colon) 15.6 µM | GI50 (OVCAR-8 ovarian) 51.4 µM | GI50 (EKVX NSCLC) 63.2 µM | GI50 (SK-MEL-28 melanoma) 27.3 µM | GI50 (SK-MEL-2 melanoma) > 100 µM | GI50 (UACC-257 melanoma) 59.1 µM | GI50 (MDA-MB-231 breast) 49 µM | GI50 (K-562 leukemia) 5.91 µM | GI50 (OVCAR-4 ovarian) 16.9 µM | GI50 (OVCAR-5 ovarian) 45.6 µM | GI50 (RXF 393 renal) 98.5 µM | GI50 (HT29 colon) 20.9 µM | GI50 (A498 renal) 38.1 µM | GI50 (ACHN renal) 42.6 µM | GI50 (MCF7 breast) 26.8 µM | GI50 (U251 CNS) 17.8 µM | GI50 (NCI-H522 lung) 44.1 µM | GI50 (CCRF-CEM leukemia) 17.7 µM | GI50 (HOP-62 NSCLC) 35.6 µM | GI50 (SK-OV-3 ovarian) 35.1 µM | GI50 (SNB-19 CNS) 47.3 µM | GI50 (LOX IMVI melanoma) 25.2 µM | GI50 (OVCAR-3 ovarian) 21.8 µM | GI50 (SK-MEL-5 melanoma) 34.3 µM | GI50 (A549 NSCLC) 42.9 µM | GI50 (SNB-75 CNS) 19.6 µM | GI50 (COLO 205 colon) 41.6 µM | GI50 (HL-60(TB) leukemia) 18.2 µM | GI50 (NCI-H23 lung) 33.5 µM | GI50 (SN12C renal) 28.6 µM | GI50 (SR leukemia) 12.9 µM | GI50 (TK-10 renal) 91 µM | GI50 (RPMI-8226 leukemia) 40.5 µM | GI50 (MDA-MB-435) 35.3 µM | GI50 (UO-31 renal) 42.6 µM | GI50 (UACC-62 melanoma) 38.6 µM | GI50 (DU-145 prostate) 92.2 µM | GI50 (HOP-92 NSCLC) 50.9 µM | GI50 (HCC-2998 colon) 17.4 µM | GI50 (CAKI-1 renal) 34.5 µM | GI50 (786-0 renal) 44.2 µM | GI50 (SF-295 CNS) 33.6 µM | GI50 (SW-620 colon) 46.9 µM | GI50 (PC-3 prostate) 52.1 µM | GI50 (NCI-H226 lung) 49.1 µM
36.4 µM: TGI (HCC-2998 colon)
69.4 µM: TGI (OVCAR-4 ovarian)
50.8 µM: TGI (NCI-H460 lung)
86.1 µM: TGI (NCI/ADR-RES ovarian)
37.7 µM: TGI (U251 CNS)
> 100 µM: TGI (MALME-3M melanoma) | TGI (SF-539 CNS) | TGI (BT-549 breast) | TGI (SF-268 CNS) | TGI (KM12 colon) | TGI (HS 578T breast) | TGI (IGROV1 ovarian) | TGI (T-47D breast) | TGI (OVCAR-8 ovarian) | TGI (EKVX NSCLC) | TGI (SK-MEL-28 melanoma) | TGI (SK-MEL-2 melanoma) | TGI (UACC-257 melanoma) | TGI (MDA-MB-231 breast) | TGI (OVCAR-5 ovarian) | TGI (RXF 393 renal) | TGI (A498 renal) | TGI (ACHN renal) | TGI (NCI-H522 lung) | TGI (CCRF-CEM leukemia) | TGI (HOP-62 NSCLC) | TGI (SK-OV-3 ovarian) | TGI (SNB-19 CNS) | TGI (LOX IMVI melanoma) | TGI (OVCAR-3 ovarian) | TGI (SK-MEL-5 melanoma) | TGI (A549 NSCLC) | TGI (COLO 205 colon) | TGI (NCI-H23 lung) | TGI (TK-10 renal) | TGI (RPMI-8226 leukemia) | TGI (MDA-MB-435) | TGI (UO-31 renal) | TGI (UACC-62 melanoma) | TGI (DU-145 prostate) | TGI (HOP-92 NSCLC) | TGI (CAKI-1 renal) | TGI (786-0 renal) | TGI (SF-295 CNS) | TGI (SW-620 colon) | TGI (PC-3 prostate) | TGI (NCI-H226 lung)
41.9 µM: TGI (SR leukemia)
61.9 µM: TGI (MOLT-4 leukemia)
46.5 µM: TGI (HT29 colon)
58.1 µM: TGI (SNB-75 CNS)
84.8 µM: TGI (SN12C renal)
